Experimental findings from ChEMBL document CHEMBL3739316, “Novel orally active inhibitors of β-1,3-glucan synthesis derived from enfumafungin” (Bioorg Med Chem Lett, 2015) are described below.

One series has as its target T1, Beta-1,3-glucan synthase (Candida albicans, UniProt O13383).
T1 sequence (O13383 whole entry): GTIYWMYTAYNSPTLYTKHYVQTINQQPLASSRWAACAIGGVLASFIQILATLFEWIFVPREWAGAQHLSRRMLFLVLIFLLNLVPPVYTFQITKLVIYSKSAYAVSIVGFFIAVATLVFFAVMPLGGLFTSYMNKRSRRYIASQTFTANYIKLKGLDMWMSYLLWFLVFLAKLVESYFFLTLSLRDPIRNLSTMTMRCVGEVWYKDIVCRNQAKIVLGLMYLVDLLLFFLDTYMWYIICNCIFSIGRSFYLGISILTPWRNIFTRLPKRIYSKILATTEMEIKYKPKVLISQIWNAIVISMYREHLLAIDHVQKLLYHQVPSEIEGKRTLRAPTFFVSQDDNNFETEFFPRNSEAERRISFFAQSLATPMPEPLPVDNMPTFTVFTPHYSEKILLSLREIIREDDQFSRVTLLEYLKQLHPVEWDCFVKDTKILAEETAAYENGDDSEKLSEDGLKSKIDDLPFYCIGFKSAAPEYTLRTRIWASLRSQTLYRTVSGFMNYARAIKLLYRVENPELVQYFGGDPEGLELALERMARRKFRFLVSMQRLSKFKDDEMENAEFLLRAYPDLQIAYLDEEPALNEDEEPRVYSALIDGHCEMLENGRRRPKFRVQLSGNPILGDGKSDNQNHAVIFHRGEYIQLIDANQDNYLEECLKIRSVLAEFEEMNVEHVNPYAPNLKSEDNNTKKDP
The experiment in a line: Displacement of UDP-[3H]glucose from beta-1,3-glucan synthase in Candida albicans MY1055 microsomal membranes incubated for 2 hrs.

Series [1] relates to Candida albicans. The experiment in a line: Antifungal activity against Candida albicans MY1055 after 24 hrs by liquid microdilution assay. It is filed as functional. As to conditions: MY1055, 24 h. In general terms: Dilution methods test growth across graded concentrations, often in twofold steps.
A further series relates to Aspergillus fumigatus. Description: Antifungal activity against Aspergillus fumigatus MF5668 after 24 hrs by liquid microdilution assay. It is filed as functional. The settings on record: MF5668, 24 h, read-out: MEC.
Series [2] concerns Candida albicans. The experiment in a line: Antifungal activity against Candida albicans MY1055 after 24 hrs by liquid microdilution assay in presence of human serum. It counts as functional. As to conditions: MY1055, 24 h.
The subject of series [3] is Mus musculus. Description: Dose normalized AUC in orally dosed mouse. It is filed as ADME, organism-based. The settings on record: in vivo, po.
Series [4] is described as follows: Oral bioavailability in mouse. It is filed as ADME, organism-based. As to conditions: in vivo.
Series [5] deals with Candida albicans. The experiment in a line: Antifungal activity against Candida albicans MY1055 in DBA/2 mouse candidiasis model assessed as change in CFU per gram of kidney at 25 mg/kg, po bid after 4 days by Target Organ Kidney Assay relative to sham treated control. It counts as functional.
Series [6] has as its system Candida albicans. The experiment in a line: Antifungal activity against Candida albicans MY1055 in DBA/2 mouse candidiasis model assessed as change in CFU per gram of kidney at 12.5 mg/kg, po bid after 4 days by Target Organ Kidney Assay relative to sham treated control. It counts as functional.
The subject of series [7] is Candida albicans. Description: Antifungal activity against Candida albicans MY1055 in DBA/2 mouse candidiasis model assessed as change in CFU per gram of kidney at 6.25 mg/kg, po bid after 4 days by Target Organ Kidney Assay relative to sham treated control. It is filed as functional.
Series [8] has as its system Candida albicans. The experiment in a line: Antifungal activity against Candida albicans MY1055 in DBA/2 mouse candidiasis model assessed as change in CFU per gram of kidney at 12.5 mg/kg, ip bid after 7 days by Target Organ Kidney Assay relative to sham treated control. It is filed as functional.
Series [9] deals with Candida albicans. Description: Antifungal activity against Candida albicans MY1055 in DBA/2 mouse candidiasis model assessed as change in CFU per gram of kidney at 25 mg/kg, po bid after 7 days by Target Organ Kidney Assay relative to sham treated control. It counts as functional.
Series [10] has as its system Candida albicans. The experiment in a line: Antifungal activity against Candida albicans MY1055 in DBA/2 mouse candidiasis model assessed as change in CFU per gram of kidney at 12.5 mg/kg, po bid after 7 days by Target Organ Kidney Assay relative to sham treated control. It is filed as functional.
Series [11] concerns Candida albicans. Description: Antifungal activity against Candida albicans MY1055 in DBA/2 mouse candidiasis model assessed as change in CFU per gram of kidney at 6.25 mg/kg, po bid after 7 days by Target Organ Kidney Assay relative to sham treated control. It is filed as functional.
The test system of series [12] is Candida albicans. Description: Antifungal activity against Candida albicans MY1055 in DBA/2N mouse candidiasis model assessed as mouse survival at 12.5 mg/kg, ip bid after 7 days by Target Organ Kidney Assay relative to sham treated control. As to conditions: 168 h. It counts as functional.
The test system of series [13] is Candida albicans. The experiment in a line: Antifungal activity against Candida albicans MY1055 in DBA/2N mouse candidiasis model assessed as mouse survival at 25 mg/kg, po bid after 7 days by Target Organ Kidney Assay relative to sham treated control. It is filed as functional. The settings on record: 168 h.
Series [14] concerns Candida albicans. The experiment in a line: Antifungal activity against Candida albicans MY1055 in DBA/2N mouse candidiasis model assessed as mouse survival at 12.5 mg/kg, po bid after 7 days by Target Organ Kidney Assay relative to sham treated control. It is filed as functional. As to conditions: 168 h.
Series [15] has as its system Candida albicans. Description: Antifungal activity against Candida albicans MY1055 in DBA/2N mouse candidiasis model assessed as mouse survival at 6.25 mg/kg, po bid after 4 days by Target Organ Kidney Assay relative to sham treated control. It counts as functional. As to conditions: 96 h.
In series [16] the test system is Candida albicans. The experiment in a line: Antifungal activity against Candida albicans MY1055 in DBA/2N mouse candidiasis model assessed as reduction of fungal burden after 7 days. It is filed as functional. The settings on record: MY1055, 168 h.
Series [17] is described as follows: AUC (0 to 24 hrs) in DBA/2J mouse at 10 mg/kg, po. It is filed as ADME, organism-based. More on the design: dose 10 mg/kg, time < 24 hr, route oral. As to conditions: in vivo.
Series [18] has as its system Mus musculus. Description: AUC (0 to 24 hrs) in DBA/2J mouse assessed as metabolite 13e at 10 mg/kg, po. It counts as ADME, organism-based. Also on record: dose 10 mg/kg, time < 24 hr, route oral. As to conditions: in vivo.
In series [19] the test system is Mus musculus. The experiment in a line: AUC (0 to 24 hrs) in DBA/2J mouse assessed as metabolite 13c at 10 mg/kg, po. It is filed as ADME, organism-based. More on the design: dose 10 mg/kg, time < 24 hr, route oral. As to conditions: in vivo.
Series [20] concerns Mus musculus. The experiment in a line: AUC (0 to 24 hrs) in DBA/2J mouse assessed as total metabolites at 10 mg/kg, po. The settings on record: in vivo. It is filed as ADME, organism-based.

As a reminder, the IC50 is the concentration needed to halve the response being measured. Lower therefore signals higher potency. The MIC is the smallest concentration in the dilution series that meets the test's criterion for growth inhibition. A word on the bioavailability: it is the share of a dose that reaches the circulation, judged against a reference dose that is usually intravenous. Read a high bioavailability as good availability. A word on the AUC(0-t): it is the area under the concentration-time curve up to a stated or last time point. A lower AUC(0-t) goes with low exposure. Usually AUC stands for concentration integrated over time.

Molecules are shown by their SMILES. Converted amounts (≈) assume the structure as drawn.

For `CC(C)[C@@H](C)[C@@]1(C)CC[C@]2(C)[C@H]3CC[C@H]4C5(C)COC[C@@]4(C[C@@H](n4nnc(N)n4)[C@@H]5OC[C@@](C)(C(C)C)N(C)C)C3=CC[C@@]2(C)[C@@H]1C(=O)O`, the IC50 on Beta-1,3-glucan synthase is 13.2 nM. For the same molecule, the MIC came to 0.25 µg/mL (≈ 0.366 µM) in the series on Candida albicans [1] and 8 µg/mL with Candida albicans [2]. Besides, the minimal effective concentration with Aspergillus fumigatus is under 0.03 µg/mL. This molecule also returned an AUC/dose in the series with Mus musculus [3] of 0.15 µM·kg·h/mg. This molecule had a bioavailability in series [4] of 17%. Further, the Activity with Candida albicans [5] was -2.6 deltalog10CFU; with Candida albicans [6], -2.5 deltalog10CFU; in the series on Candida albicans [7], -0.7 deltalog10CFU; with Candida albicans [8], -3.36 deltalog10CFU; in the series on Candida albicans [9] it was -2.75 deltalog10CFU; with Candida albicans [10], -2.38 deltalog10CFU. In addition, the Activity with Candida albicans [11] was -1.19 deltalog10CFU. The survival at 12.5 mg/kg with Candida albicans [12] and in the series with Candida albicans [14] was 100% each time. Besides, the survival at 25 mg/kg in the series with Candida albicans [13] was 100%. Further, the survival at 6.25 mg/kg in the series on Candida albicans [15] came to 40%. Moreover, in the series on Candida albicans [16], the ED99 came to 9 mg/kg. In addition, the AUC(0-t) at 24 h in [17] was determined as 1.27 µM·h. Moreover, the AUC in the series on Mus musculus [18] turned out to be 1.23 µM·h; in the series on Mus musculus [19] it was 0.11 µM·h. For the same molecule, the Drug uptake with Mus musculus [20] is 51.3%.
